Values after ≈ are worked out from the molar mass of the structure shown. Read-outs that look alike come from different tables or passages of the source.
Legend:
HCT116 cells [1] = experiment: SRB cytotoxicity assay, HCT116; type: cell-based, human; settings: for IC50: Homo sapiens, HCT-116, read-out: IC50 against HCT116
Method: (§1) Breast carcinoma MCF-7 and colorectal cancer HCT116 cell lines were used in this study. Cancer cell lines were obtained frozen in liquid nitrogen (−180°C) from the American Type Culture Collection (ATCC). The tumor cell line was maintained by serial subculturing in RPMI 1640 media containing 10% […] at the National Cancer Institute, Cairo, Egypt.
(§2) Cytotoxicity assay was carried out according to the reported literature, where the sensitivity of the MCF-7 and HCT116 cell lines to the tested compounds and their combination was determined by the SRB assay. In brief, cells were seeded at a density of 3 × 10^3 cells/well in 96-well microtiter plates. Cells were left to attach for 24 hours before incubation with drugs. Next, they were treated with different concentrations of the tested compounds (10, 20, 30, 40, 50, and 100 μM).
(§3) Control cells containing 200 μl/well of DMSO (0.1% v/v) were used similarly. At the end of incubation, cells were fixed with 20% trichloroacetic acid (TCA), stained with 0.4% Sulforhodamine B (SRB), and rinsed with 1% acetic acid. The bound protein stain was solubilized with Tris base (10 mM, pH 10.5) and the optical density (OD) of each well was measured spectrophotometrically at 570 nm using ELISA microplate reader (TECAN, Sunrise^TM, Germany). The fraction of cell survival was calculated as follows.
(§4) Survival fraction = OD treated/OD control. […] Each experiment was repeated 3 times.

[2] = Equilibrium solubility in buffer solutions (UV); type: physicochemical; settings: thermodynamic from solid, 37 °C, read-out: Mean solubility ± SD
Method: UV measurements were performed on single beam spectrophotometer (Jenway, model 6305, UK). Equilibrium solubility was performed through using digital precise shaking water bath (DAIHAN Scientific Co., model WSB-45, Republic of Korea).
A powdered sample (20 mg), of each of the tested compounds [3, 5–10, and griseofulvin 1], was accurately weighed and dissolved in 100 ml of methanol to prepare 200 μg/ml stock solution. Compound solutions (20 μg/ml) in the investigated media (buffer solutions of pH 1.2 and 6.8) were prepared from stock solution after appropriate dilution. The prepared solutions were scanned in the UV-Vis region (200–800 nm) to determine the wavelength of maximum absorption (λmax) in each medium.
Solutions containing different concentrations of the investigated compound were prepared from stock solution after appropriate dilution with the investigated buffer solutions. The UV absorbance of the prepared sample solutions was measured at λmax of the investigated compound using the investigated buffer solution as a reference solution (blank). The determined absorbance values were plotted versus the corresponding concentrations to construct the standard calibration curves.
Equilibrium solubility of each of the tested compounds was determined by placing an excess amount of the compound in stoppered glass volumetric flask containing 10 ml of the investigated buffer solution. The solutions were shaken at a rate of (40 ± 2) stroke/minute in a thermostatically controlled water bath at 37 ± 0.5°C for 24 hours to ensure equilibrium. Samples of 2 ml were withdrawn from each test solution, filtered immediately, and assayed spectrophotometrically at the determined λmax of the investigated compound.

MCF-7 cells [3] = experiment: SRB cytotoxicity assay, MCF-7; type: cell-based; settings: Homo sapiens, MCF7, read-out: IC50 against MCF-7
Method: as §1, §2, §3, §4

centrosomal clustering = system: centrosomal clustering; design: method as in PMID 22191585, PMID 19402668; settings: cited from earlier work
MCF-7 cells [4] = experiment: Apoptosis, Annexin V-FITC/PI flow cytometry; type: cell-based, human; settings: MCF-7, 21.5 μM, 48 hrs
Method: In order to study the effect of compound 9 on apoptosis, MCF-7 cells were treated with compound 9 (21.5 μM) for 48 hrs and harvested for fluorescence microscopic and flow cytometric analysis of Annexin V-FITC/propidium iodide (PI) staining. […] The percentage of apoptotic cells was 2.65% in control untreated MCF-7 cells and 31.75% after treatment with compound 9.
In brief, untreated and treated MCF-7 cells (21.5 μM of 9) were harvested and resuspended in calcium buffer at a concentration of 1 × 10^6 cells/ml. Annexin V-FITC (10 μl) was added to 100 μl of cells. The tubes were incubated for 20 min in the dark. The cells were then washed with calcium buffer and propidium iodide (10 μl) was added to each tube and incubated for at least 10 min on ice. Samples were analyzed by FACScan flow cytometer (Becton-Dickinson, San Jose, CA, USA) using CellQuest software (Becton-Dickinson, San Jose, CA).

HCT116 cells [5] = experiment: Combination of compound 9 with 5-fluorouracil (SRB, combination index); type: cell-based, human
Method: (§5) Estrogen-dependent breast cancer represents 70% of all types of breast cancer. […] Combination therapy is used in order to prevent resistance or recurrence. […] Similar study was performed for evaluation of combination effect of compound 9 with 5-fluorouracil on HCT116 cells proliferation (Figure 1).
as §2
(§6) CI was employed to determine whether the compounds interacted synergistically, additively, or antagonistically. […] If “CI” is less than 1, the effect of combination is synergistic, whereas if CI = 1 or >1, the effect is additive or antagonistic, respectively.

MCF-7 cells [6] = experiment: Combination of compound 9 with tamoxifen (SRB, combination index); type: cell-based, human
Method: as §5, §2, §6

[7] = buffer solution pH 1.2, simulated gastric fluid, pH 1.2 buffer solution
[8] = buffer solution pH 6.8, aqueous buffer, pH 6.8 buffer solution

solubility at 24 h [2, 7] [µg/mL]	solubility at 24 h [2, 8] [µg/mL]	SMILES	IC50 (HCT116 cells [1]) [µM]	IC50 (MCF-7 cells [3]) [µM]	increase in activity as a centrosome clustering inhibitor compared to 1 (centrosomal clustering) [fold]	increase in activity over 5-fluorouracil against HCT116 (HCT116 cells [1]) [fold]	percentage of apoptotic cells (MCF-7 cells [4]) [%]	combination index (CI) (HCT116 cells [5]; half of IC50 of compound 9 + quarter of IC50 of 5-fluorouracil)	combination index (CI) (HCT116 cells [5]; quarter of IC50 of compound 9 + half of IC50 of 5-fluorouracil)	combination index (CI) (MCF-7 cells [6]; half of IC50 of compound 9 + quarter of IC50 of tamoxifen)	combination index (CI) (MCF-7 cells [6]; quarter of IC50 of compound 9 + half of IC50 of tamoxifen)
29.1 ± 0.72	12.5 ± 0.54	COC1=CC(=NNC(=O)c2ccncc2)C[C@@H](C)[C@]12Oc1c(Cl)c(OC)cc(OC)c1C2=O (mixture of isomers) [Compound 8, (E/Z)-N′-((2S,6′R)-7-Chloro-2′,4,6-trimethoxy-6′-methyl-3-oxo-3H-spiro[benzofuran-2,1′-cyclohex[2′]en]-4′-ylidene)isonicotinic Acid Hydrazide]	39.8	25.3							
		COC1=CC(=NNC(=N)N)C[C@@H](C)[C@]12Oc1c(Cl)c(OC)cc(OC)c1C2=O [Compound 7, 2-((2S,6′R)-7-Chloro-2′,4,6-trimethoxy-6′-methyl-3-oxo-3H-spiro[benzo-furan-2,1′-cyclohex[2′]en]-4′-ylidene)hydrazine-1-carboximidamide]	85.6	54.5							
11.1 ± 0.37 (≈ 26 µM)	11.1 ± 0.82 (≈ 25.9 µM)	COc1cc(OC)c2c(c1Cl)O[C@]1(C2=O)C(OCc2ccccc2)=CC(=O)C[C@H]1C [Compound 3, (2S,6′R)-2′-Benzyloxy-7-chloro-4,6-dimethoxy-6′-methyl-3H-spiro[benzofuran-2,1′-cyclohex[2′]en]-3,4′-dione, reference compound]	35.8	32.8	25						
14 ± 0.31 (≈ 28.7 µM)	13.78 ± 0.07 (≈ 28.4 µM)	COc1cc(OC)c2c(c1Cl)OC1(C2=O)C(OCc2ccccc2)=CC(=NNC(N)=O)CC1C [Compound 9, 2-((2S,6′R)-2′-Benzyloxy-7-chloro-4,6-dimethoxy-6′-methyl-3-oxo-3H-spiro[benzofuran-2,1′-cyclohex[2′]en]-4′-ylidene)hydrazine-1-carboxamide]	10.5	21.5		2	31.75	0.37 ± 0.07	0.2 ± 0.06	0.25 ± 0.03	0.17 ± 0.06
14.3 ± 0.42	27.94 ± 0.27	COc1cc(OC)c2c(c1Cl)O[C@]1(C2=O)C(OCc2ccccc2)=CC(=NOCC(=O)O)C[C@H]1C (mixture of isomers) [Compound 5, 2-(((E/Z)-[(2S,6′R)2′-Benzyloxy-7-chloro-4,6-dimethoxy-6′-methyl-3-oxo-3H-spiro[benzofuran-2,1′-cyclohex[2′]en]-4′-ylidene]amino)oxy) Acetic Acid]	> 100	20.7							
26.7 ± 0.57 (≈ 55 µM)	16.6 ± 0.58 (≈ 34.2 µM)	COc1cc(OC)c2c(c1Cl)OC1(C2=O)C(OCc2ccccc2)=CC(=NNC(=N)N)CC1C [Compound 10, 2-((2S,6′R)-2′-Benzyloxy-7-chloro-4,6-dimethoxy-6′-methyl-3-oxo-3H-spiro[benzofuran-2,1′-cyclohex[2′]en]-4′-ylidene)hydrazine-1-carboximidamide]	8.39	14.5		2					
14.86 ± 0.12	14.5 ± 0.39	COC1=CC(=NNC(N)=O)C[C@@H](C)[C@]12Oc1c(Cl)c(OC)cc(OC)c1C2=O (mixture of isomers) [Compound 6, (E/Z)-2-((2S,6′R)-7-Chloro-2′,4,6-trimethoxy-6′-methyl-3-oxo-3H-spiro[benzofuran-2,1′-cyclohex[2′]en]-4′-ylidene)hydrazine-1-carboxamide]	87.8	55.9							
12.3 ± 0.29 (≈ 34.9 µM)	12.4 ± 0.26 (≈ 35.1 µM)	COC1=CC(=O)C[C@@H](C)[C@]12Oc1c(Cl)c(OC)cc(OC)c1C2=O [Compound 1, Griseofulvin]	35.5	69							
		O=c1[nH]cc(F)c(=O)[nH]1 [5-Fluorouracil, reference compound]	19.5								
